Assay results: patent publication US11884671B2, “Purinone compounds and their use in treating cancer” (ASTRAZENECA AB, priority 2018, dated 2024)

How the values were obtained:
[1] = target: Full length human DNAPK protein (Homo sapiens (Human), UniProt P78527); experiment: DNAPK enzyme potency assay (DNA-PK enz), TR-FRET; assay type: biochemical; conditions: arithmetic mean of two or more experiments, 18 μM ATP; for IC50: read-out: DNA-PK enz pIC50 (converted)
Source text: The following assays were used to measure the effects of the compounds described herein: a) DNAPK enzyme potency assay; b) DNAPK cellular potency assay. During the description of the assays, generally: • i. The following abbreviations have been used; DMSO=Dimethyl Sulphoxide; DTT=Dithiothreitol; EDTA=Ethylenediaminetetraacetic Acid, TR-FRET=Time Resolved Fluorescence Resonance Energy Transfer, ATP=Adenosine triphosphate, DTT=Dithiothreitol, DNA=Deoxyribonucleic acid, HEPES=(2-hydroxyethyl)-1-piperazineethanesulfonic acid • ii. […] Assay a): DNAPK Enzyme Potency Assay (DNA-PK Enz)
The inhibitory activity of compounds against DNAPK was determined by TR-FRET measuring a fluorescent labelled peptide substrate converting to a phosphorylated product. Fluorescently tagged peptide substrate were purchased from Thermo Fisher Scientific. 12 point half-log compound concentration-response curves, with a top concentration of 100 μM were generated from 10 mM stocks of compound solubilised in DMSO using an Echo 555 (Labcyte Inc., Sunnyvale, CA). All assays were preformed in white Greiner 1536 well low volume plates (Greiner Bio-One, UK), in a total reaction volume of 3 μL and 1% (v/v) final DMSO concentration. Enzymes and substrates were added separately to the compound plates and incubated at room temperature. The kinase reaction was then quenched by the addition of 3 μL of stop buffer. Stopped assay plates were read using a BMG Pherastar. IC50 values were calculated using a Genedata Screener® software (Genedata, Inc., Basel, Switzerland).
Full length human DNAPK protein was purified from HeLa cell extract by ion exchange. Initially DNAPK protein was incubated with compound for 30 minutes at room temperature in reaction buffer (50 mM Hepes pH 7.5, 0.01% Brij-35, 10 mM MgCl2, 1 mM EGTA, 1 mM DTT, […] Calf Thymus DNA). The reaction was then initiated by the addition of ATP and fluorescently tagged peptide substrate (Fluorescein-[…], Thermo Fisher Scientific). […] The reaction was incubated for a further hour and the plates were read on a BMG Pherastar.
(§1) Data was analysed and IC50 values were calculated using Genedata Screener® software (Genedata, Inc., Basel, Switzerland).

DNAPK = DNAPK (Homo sapiens (Human), UniProt P78527); experiment: DNAPK cellular potency assay (DNA-PK cell), pS2056-DNAPK ELISA in irradiated A549 cells; assay type: cell-based; conditions: 8 Gy radiation, arithmetic mean of two or more experiments, read-out: DNA-PK cell pIC50 (converted)
Method: The DNAPK cell ELISA assay was performed in the A549 cell line. A549 cells were cultured in cell media composed of MEM-F12 (Minimum Essential Medium F12 Sigma #D6421), 10% (v/v) Foetal Calf Serum and 1% (v/v) 200 mM L-Glutamine. […] The following day the Greiner ELISA plates were washed 3× with PBS-T and blocked with 3% BSA/PBS for 2 h, before a further 3× wash with PBS-T.
The cell plates were then incubated for 1 h at 37° C. before receiving a radiation dose of 8 Gy (XRAD 320, table height 65). The cells were incubated for a further 1 h before removal of cell media. […] Cell lysates ([…]) were transferred to the DNAPK antibody-coated ELISA plates using a CyBio Felix liquid handling platform, and ELISA plates were incubated at 4° C. overnight.
The following day, ELISA plates were washed 3× with PBS-T and dispensed with in-house pS2056-DNAPK antibody (0.5 μg/mL in 3% BSA/PBS) at 20 ul/well.
The fluorescence intensity of individual wells was determined using a PerkinElmer EnVision plate reader.
as §1

JAK1 = JAK1 (Homo sapiens (Human), UniProt P23458); experiment: JAK1 enzyme assay (Z'-LYTE); assay type: biochemical; conditions: 75 μM ATP, arithmetic mean of two or more experiments; for IC50: read-out: JAK1 enz pIC50 (converted)
Method: (§2) The inhibitory activity of compounds against AURKA, AURKB, JAK1, JAK2 and JAK3 was determined in Z′-LYTE® assays run by ThermoFisher Scientific as part of their SelectScreen® Biochemical Kinase Profiling Service. The Z′-LYTE® biochemical assay format employs a fluorescence-based, coupled-enzyme format and is based on the differential sensitivity of phosphorylated and non-phosphorylated peptides to proteolytic cleavage. The peptide substrate is labeled with two fluorophores—one at each end—that make up a FRET pair. In the primary reaction, the kinase transfers the gamma-phosphate of ATP to a single tyrosine, serine or threonine residue in a synthetic FRET-peptide. In the secondary reaction, a site-specific protease recognises and cleaves non-phosphorylated FRET-peptides. Phosphorylation of FRET-peptides suppresses cleavage by the Development Reagent. Cleavage disrupts FRET between the donor (i.e., coumarin) and acceptor (i.e., fluorescein) fluorophores on the FRET-peptide, whereas uncleaved, phosphorylated FRET-peptides maintain FRET. A ratiometric method, which calculates the ratio (the Emission Ratio) of donor emission to acceptor emission after excitation of the donor fluorophore at 400 nm, is used to quantitate reaction progress. Both cleaved and uncleaved FRET-peptides contribute to the fluorescence signals and therefore to the Emission Ratio. The extent of phosphorylation of the FRET-peptide can be calculated from the Emission Ratio.
(§3) 10 point three-fold dilution compound concentration-response curves, with a top concentration of 10 μM were generated from 10 mM stocks of compound solubilised in DMSO. All assays were performed in black, non-binding, low volume Corning 384-well plates (cat. #4514, Corning), in a total reaction volume of 10 μL and 1% (v/v) final DMSO concentration. […] The kinase reaction was then quenched by the addition of 5 μL of Development Reagent (ThermoFisher Scientific proprietary). […] IC50 values were calculated using XLfit software (IDBS Ltd, Surrey, UK), with the curve fit to model number 205 (sigmoidal dose-response model).
JAK1: The 2×JAK/Tyr 06 (ThermoFisher Scientific proprietary) mixture was prepared in 50 mM HEPES pH 6.5, 0.01% BRIJ-35, 10 mM MgCl2, 1 mM EGTA, 0.02% NaN3. […] After the 1 hour Kinase Reaction incubation, 5 μL of a 1:128 dilution of Development Reagent was added.

JAK2 = JAK2 (Homo sapiens (Human), UniProt O60674); experiment: JAK2 enzyme assay (Z'-LYTE); assay type: biochemical; conditions: 25 μM ATP, arithmetic mean of two or more experiments; for IC50: read-out: JAK2 enz pIC50 (converted)
Method: as §2, §3
JAK2: The 2×JAK2/Tyr 06 (ThermoFisher Scientific proprietary) mixture was prepared in 50 mM HEPES pH 7.5, 0.01% BRIJ-35, 10 mM MgCl2, 1 mM EGTA. […] After the 1 hour Kinase Reaction incubation, 5 μL of a 1:128 dilution of Development Reagent was added.

JAK3 = JAK3 (Homo sapiens (Human), UniProt P52333); experiment: JAK3 enzyme assay (Z'-LYTE); assay type: biochemical; conditions: 10 μM ATP, arithmetic mean of two or more experiments; for IC50: read-out: JAK3 enz pIC50 (converted)
Method: as §2, §3
JAK3: The 2×JAK3/Tyr 06 (ThermoFisher Scientific proprietary) mixture was prepared in 50 mM HEPES pH 7.5. 0.01% BRIJ-35, 10 mM MgCl2, 1 mM EGTA. […] After the 1 hour Kinase Reaction incubation, 5 μL of a 1:128 dilution of Development Reagent was added.

Chain of JAK1 (P23458 whole entry): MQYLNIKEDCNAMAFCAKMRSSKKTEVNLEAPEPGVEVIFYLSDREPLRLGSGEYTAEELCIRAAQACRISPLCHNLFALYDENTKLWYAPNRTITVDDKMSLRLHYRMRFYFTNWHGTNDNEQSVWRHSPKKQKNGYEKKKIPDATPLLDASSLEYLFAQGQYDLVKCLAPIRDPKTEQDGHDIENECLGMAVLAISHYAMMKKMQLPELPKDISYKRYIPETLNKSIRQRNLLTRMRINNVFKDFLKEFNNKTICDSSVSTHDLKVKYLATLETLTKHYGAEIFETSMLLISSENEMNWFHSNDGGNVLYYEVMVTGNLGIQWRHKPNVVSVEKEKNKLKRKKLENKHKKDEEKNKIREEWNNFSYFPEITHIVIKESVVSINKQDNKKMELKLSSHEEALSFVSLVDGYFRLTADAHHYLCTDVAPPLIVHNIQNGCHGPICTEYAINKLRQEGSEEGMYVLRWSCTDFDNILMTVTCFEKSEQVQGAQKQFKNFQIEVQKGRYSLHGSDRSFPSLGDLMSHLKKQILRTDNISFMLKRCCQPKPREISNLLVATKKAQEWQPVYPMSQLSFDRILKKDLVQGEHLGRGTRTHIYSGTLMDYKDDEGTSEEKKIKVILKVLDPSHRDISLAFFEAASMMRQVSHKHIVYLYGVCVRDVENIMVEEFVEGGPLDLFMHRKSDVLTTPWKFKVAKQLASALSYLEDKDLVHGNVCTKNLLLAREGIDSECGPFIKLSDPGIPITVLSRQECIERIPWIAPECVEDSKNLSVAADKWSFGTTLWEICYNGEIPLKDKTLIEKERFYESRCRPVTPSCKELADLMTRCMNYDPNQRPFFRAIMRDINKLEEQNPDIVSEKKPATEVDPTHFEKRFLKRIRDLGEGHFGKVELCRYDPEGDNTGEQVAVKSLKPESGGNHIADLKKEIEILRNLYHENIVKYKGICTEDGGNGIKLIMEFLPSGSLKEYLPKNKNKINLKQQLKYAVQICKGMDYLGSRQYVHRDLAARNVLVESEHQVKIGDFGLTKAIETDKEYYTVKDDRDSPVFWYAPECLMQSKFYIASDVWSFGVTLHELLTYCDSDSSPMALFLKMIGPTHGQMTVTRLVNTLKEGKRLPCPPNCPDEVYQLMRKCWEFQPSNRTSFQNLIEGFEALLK
Chain of JAK2 (O60674 whole entry): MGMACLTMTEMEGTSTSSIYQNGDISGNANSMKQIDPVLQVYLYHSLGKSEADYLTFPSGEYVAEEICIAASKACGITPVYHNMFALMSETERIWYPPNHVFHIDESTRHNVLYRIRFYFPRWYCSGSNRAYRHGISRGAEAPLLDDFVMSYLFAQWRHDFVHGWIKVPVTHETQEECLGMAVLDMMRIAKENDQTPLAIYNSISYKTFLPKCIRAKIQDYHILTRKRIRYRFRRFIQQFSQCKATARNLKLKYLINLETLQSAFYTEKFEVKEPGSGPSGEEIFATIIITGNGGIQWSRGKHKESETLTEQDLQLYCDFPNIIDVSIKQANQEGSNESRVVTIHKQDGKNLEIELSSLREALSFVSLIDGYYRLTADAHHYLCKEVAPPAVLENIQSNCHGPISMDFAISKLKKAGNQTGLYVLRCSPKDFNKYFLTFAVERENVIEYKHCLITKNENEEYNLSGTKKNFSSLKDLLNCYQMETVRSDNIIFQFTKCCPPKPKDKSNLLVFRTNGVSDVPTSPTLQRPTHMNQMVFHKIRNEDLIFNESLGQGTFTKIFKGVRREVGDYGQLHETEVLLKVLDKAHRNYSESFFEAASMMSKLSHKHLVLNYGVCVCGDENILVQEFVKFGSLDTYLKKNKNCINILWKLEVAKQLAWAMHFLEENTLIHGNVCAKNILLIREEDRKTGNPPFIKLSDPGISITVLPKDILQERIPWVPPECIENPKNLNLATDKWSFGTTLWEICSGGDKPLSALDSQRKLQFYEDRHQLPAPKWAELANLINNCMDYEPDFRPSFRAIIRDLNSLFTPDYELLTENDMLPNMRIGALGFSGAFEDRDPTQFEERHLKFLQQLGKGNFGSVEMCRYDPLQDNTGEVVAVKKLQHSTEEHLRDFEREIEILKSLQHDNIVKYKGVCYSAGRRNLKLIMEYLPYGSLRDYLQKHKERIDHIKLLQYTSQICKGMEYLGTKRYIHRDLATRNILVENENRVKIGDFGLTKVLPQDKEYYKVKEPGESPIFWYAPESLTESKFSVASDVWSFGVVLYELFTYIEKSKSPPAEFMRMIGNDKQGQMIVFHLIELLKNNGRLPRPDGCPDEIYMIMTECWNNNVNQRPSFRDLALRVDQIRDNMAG
Chain of JAK3 (P52333 whole entry): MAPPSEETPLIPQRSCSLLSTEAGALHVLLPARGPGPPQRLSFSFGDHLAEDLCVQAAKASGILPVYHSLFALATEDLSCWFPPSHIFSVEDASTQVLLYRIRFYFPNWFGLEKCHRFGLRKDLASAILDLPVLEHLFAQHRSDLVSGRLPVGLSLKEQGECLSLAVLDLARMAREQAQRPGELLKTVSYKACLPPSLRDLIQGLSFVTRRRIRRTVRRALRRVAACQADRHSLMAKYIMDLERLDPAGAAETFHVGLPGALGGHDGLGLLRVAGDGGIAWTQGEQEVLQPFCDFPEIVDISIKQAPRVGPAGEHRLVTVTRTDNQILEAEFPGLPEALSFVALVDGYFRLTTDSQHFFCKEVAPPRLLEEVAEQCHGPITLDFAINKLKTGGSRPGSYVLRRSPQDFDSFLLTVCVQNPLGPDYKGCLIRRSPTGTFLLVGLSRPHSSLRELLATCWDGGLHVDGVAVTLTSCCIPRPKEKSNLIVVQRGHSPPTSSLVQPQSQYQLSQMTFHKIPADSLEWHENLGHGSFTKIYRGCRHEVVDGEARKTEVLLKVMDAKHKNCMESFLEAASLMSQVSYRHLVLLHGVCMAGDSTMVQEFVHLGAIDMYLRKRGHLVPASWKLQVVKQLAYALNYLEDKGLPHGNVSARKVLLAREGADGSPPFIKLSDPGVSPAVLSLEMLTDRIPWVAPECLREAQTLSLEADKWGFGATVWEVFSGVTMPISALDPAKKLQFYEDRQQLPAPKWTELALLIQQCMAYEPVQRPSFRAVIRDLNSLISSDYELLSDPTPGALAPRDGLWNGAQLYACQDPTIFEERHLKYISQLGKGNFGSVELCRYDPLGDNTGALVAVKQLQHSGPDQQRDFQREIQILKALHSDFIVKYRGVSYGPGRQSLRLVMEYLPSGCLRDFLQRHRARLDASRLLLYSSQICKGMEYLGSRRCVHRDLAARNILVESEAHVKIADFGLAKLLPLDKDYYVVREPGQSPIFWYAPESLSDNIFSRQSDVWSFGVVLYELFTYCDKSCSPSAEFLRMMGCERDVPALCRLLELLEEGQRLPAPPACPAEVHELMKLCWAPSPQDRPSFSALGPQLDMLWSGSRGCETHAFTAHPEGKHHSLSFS

SMILES	DNA-PK enz pIC50 [1]	IC50 (DNAPK) [nM]	JAK1 enz pIC50 (JAK1)	JAK2 enz pIC50 (JAK2)	JAK3 enz pIC50 (JAK3)	IC50 [1] [nM]	IC50 (JAK1) [µM]	IC50 (JAK2) [µM]	IC50 (JAK3) [µM]
Cc1cc2nnccc2cc1Nc1ncc2c(n1)n([C@H]1CC[C@@H](O)CC1)c(=O)n2C [Example 12, 9-((1s,4s)-4-hydroxycyclohexyl)-7-methyl-2-((7-methylcinnolin-6-yl)amino)-7,9-dihydro-8H-purin-8-one]	>10	20	<5	<5	<5				
Cc1cc2nccnc2cc1Nc1ncc2c(n1)n([C@H]1CC[C@@H](O)CC1)c(=O)n2C [Example 13, 9-((1s,4s)-4-hydroxycyclohexyl)-7-methyl-2-((7-methylquinoxalin-6-yl)amino)-7,9-dihydro-8H-purin-8-one]		15.8				0.2	> 10	> 10	> 10
Cc1cc2nccnc2cc1Nc1ncc2c(n1)n([C@H]1CC[C@](C)(O)CC1)c(=O)n2C [Example 18, 9-((1r,4r)-4-hydroxy-4-methylcyclohexyl)-7-methyl-2-((7-methylquinoxalin-6-yl)amino)-7,9-dihydro-8H-purin-8-one]		50.1				0.251	> 10	> 10	> 10
Cc1cc2nccnc2cc1Nc1ncc2c(n1)n([C@H]1CC[C@@](C)(O)CC1)c(=O)n2C [Example 19, 9-((1s,4s)-4-hydroxy-4-methylcyclohexyl)-7-methyl-2-((7-methylquinoxalin-6-yl)amino)-7,9-dihydro-8H-purin-8-one]		25.1				0.158	> 10	> 10	> 10
Cc1cc2nccnc2cc1Nc1ncc2c(n1)n([C@]1(C)CC[C@H](O)CC1)c(=O)n2C [Example 20, 9-((1s,4s)-4-hydroxy-1-methylcyclohexyl)-7-methyl-2-((7-methylquinoxalin-6-yl)amino)-7,9-dihydro-8H-purin-8-one]	10.0	20	<5	<5	<5				
Cc1cc2nnccc2cc1Nc1ncc2c(n1)n([C@H]1CCOC1)c(=O)n2C [Example 21, (S)-7-methyl-2-((7-methylcinnolin-6-yl)amino)-9-(tetrahydrofuran-3-yl)-7,9-dihydro-8H-purin-8-one]	>10	15.8	<5	<5	<5				
Cc1cc2nccnc2cc1Nc1ncc2c(n1)n([C@H]1CCOC1)c(=O)n2C [Example 22, (S)-7-methyl-2-((7-methylquinoxalin-6-yl)amino)-9-(tetrahydrofuran-3-yl)-7,9-dihydro-8H-purin-8-one]	9.8	25.1	<5	<5	<5				
Cc1cc2nnccc2cc1Nc1ncc2c(n1)n([C@@H]1CCOC1)c(=O)n2C [Example 23, (R)-7-methyl-2-((7-methylcinnolin-6-yl)amino)-9-(tetrahydrofuran-3-yl)-7,9-dihydro-8H-purin-8-one]	9.4	63.1	<5	<5	<5				
Cc1cc2nccnc2cc1Nc1ncc2c(n1)n([C@@H]1CCOC1)c(=O)n2C [Example 24, (R)-7-methyl-2-((7-methylquinoxalin-6-yl)amino)-9-(tetrahydrofuran-3-yl)-7,9-dihydro-8H-purin-8-one]	9.1	79.4	<5	<5	<5				
Cc1cc2nnccc2cc1Nc1ncc2c(n1)n([C@@H]1CCCOC1)c(=O)n2C [Example 25, (R)-7-methyl-2-((7-methylcinnolin-6-yl)amino)-9-(tetrahydro-2H-pyran-3-yl)-7,9-dihydro-8H-purin-8-one]	9.7	39.8	<5	<5	<5				
Cc1cc2nccnc2cc1Nc1ncc2c(n1)n([C@@H]1CCCOC1)c(=O)n2C [Example 26, (R)-7-methyl-2-((7-methylquinoxalin-6-yl)amino)-9-(tetrahydro-2H-pyran-3-yl)-7,9-dihydro-8H-purin-8-one]	9.8	39.8	<5	<5	<5				
